Measured values published in patent US10336717B2, “Inhibitors of beta-secretase” (Vitae Pharmaceuticals, Inc., priority 2009, dated 2019).

Key:
[1] = biological target: truncated human beta-secretase (residues 1-458, His6-tagged) (Homo sapiens (Human), UniProt P56817); test: BACE enzyme assay (fluorescence quench, Example 434A); format: biochemical
[2] = biological target: BACE (Homo sapiens (Human), UniProt P56817); test: BACE cell assay: secreted Aβ 1-40 in H4-APPsw cells (AlphaLISA/ELISA, Example 434B); format: cell-based; details: in vitro cell activity, Aβ 1-40 in culture media after overnight treatment
BACE, sequence (P56817 46-501 limits assumed): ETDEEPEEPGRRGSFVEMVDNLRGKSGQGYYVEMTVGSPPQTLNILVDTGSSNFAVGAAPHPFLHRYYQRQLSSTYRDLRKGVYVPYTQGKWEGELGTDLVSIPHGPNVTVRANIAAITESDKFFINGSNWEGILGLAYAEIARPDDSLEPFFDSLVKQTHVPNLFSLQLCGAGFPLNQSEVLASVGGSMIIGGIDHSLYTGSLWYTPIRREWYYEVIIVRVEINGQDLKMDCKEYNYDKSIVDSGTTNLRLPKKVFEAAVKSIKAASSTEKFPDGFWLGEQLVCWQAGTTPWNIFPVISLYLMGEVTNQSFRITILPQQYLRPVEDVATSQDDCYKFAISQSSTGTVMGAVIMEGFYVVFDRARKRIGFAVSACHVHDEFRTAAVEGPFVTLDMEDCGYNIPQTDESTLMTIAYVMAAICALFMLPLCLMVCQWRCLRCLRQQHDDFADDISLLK
Method: For the assay, cells are treated overnight in the presence of inhibitor and the culture media are subjected to ELISA analysis of soluble Amyloid Beta 1-40 (Aβ 1-40).
H4 neuroglioma cell line was cultured in DMEM with 10% FBS and 1% penicillin/streptomycin (Culture Medium) at 37° C., 5% CO2.
Split H4-APPsw cells in Culture Medium and culture overnight such that cells will be ˜80% confluent next morning.
After determining the desired final concentration of compound to be tested, create a 500× dilution plate. Add DMSO, but not inhibitor, to each well of Column 1. […] Add compounds of interest at 500× desired final concentration to wells A3-A10. Add DMSO, but not inhibitor, to each well of Columns 11 and 12. Dilute contents of Row A 1:3 in Row B, then continue through Rows C-H.
To create a 2× solution of compound in media, add 996 μL Culture Medium to each well of a 96-well 2 mL deep well plate (Media Plate) in biosafety hood. Add 4 μL 5 mM control compound to Media Plate wells A1-D1 for determination of full inhibition.
With a multichannel pipettor, mix each well of Media Plate several times to insure homogeneity. Add 100 μL of mixture to Black polymer bottom P-D-L plates. Next, place Medium Plate and Cell Plate in the incubator. […]
After 16 h incubation, spin Cell Plate for 8 min at 1200 rpm. The primary reading of Aβ 1-40 levels is done using PerkinElmer AlphaLISA technology. […]

truncated human beta-secretase (residues 1-458, His6-tagged), sequence (P56817 22-458): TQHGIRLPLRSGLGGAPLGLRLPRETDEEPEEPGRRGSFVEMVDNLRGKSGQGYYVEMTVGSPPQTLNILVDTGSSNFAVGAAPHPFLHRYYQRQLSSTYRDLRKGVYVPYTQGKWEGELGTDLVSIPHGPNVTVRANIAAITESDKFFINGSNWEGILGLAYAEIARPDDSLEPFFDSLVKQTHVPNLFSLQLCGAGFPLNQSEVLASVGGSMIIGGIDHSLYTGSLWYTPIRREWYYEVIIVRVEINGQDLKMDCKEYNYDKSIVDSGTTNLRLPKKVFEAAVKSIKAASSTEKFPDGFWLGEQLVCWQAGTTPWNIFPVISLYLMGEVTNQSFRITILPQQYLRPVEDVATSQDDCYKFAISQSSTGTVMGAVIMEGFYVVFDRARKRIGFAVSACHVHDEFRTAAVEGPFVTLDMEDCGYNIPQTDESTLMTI

Row | SMILES | IC50 [1] | IC50 [2]
1 | CN1OC2(N=C1N)c1ccccc1CC21CCc2ccccc2CC1 (centres unmarked) [Compound 35] | 0.105 µM | 
2 | CCOC1CCC2(CC1)Cc1ccc(-c3cccc(C#N)c3)cc1C21N=C(N)N(C)O1 (centres unmarked) [Compound 49] |  | < 1 µM
